17 molecules from patent US7671065B2, “Pyridine derivatives as potassium ion channel openers” (Janssen Pharmaceutica N.V., priority 2005, dated 2010) can be followed below.

A value given as a limit tells only on which side of the number the result lay.

This experiment addresses T1, KATP channels (Homo sapiens, UniProt O60706+Q14654).
T1 construct: TE671 human medulloblastoma cells were obtained from ATCC; host or cells: TE671 human medulloblastoma cells
As to the kind of experiment: Potassium Channel Assay (FLIPR membrane potential dye, TE671 cells). It is filed as cell-based. Conditions: TE671 human medulloblastoma cells, room temperature, fluorescence change monitored for 3 minutes. How it is done:
TE671 human medulloblastoma cells were obtained from ATCC and grown in Dulbecco's modified Eagle's medium (DMEM) supplemented with 10% fetal bovine serum, 100 U/ml penicillin and 100 U/ml streptomycine.
The day before testing, the cells were plated in black 96-well plates at 50K/well. On the day of testing, the growth media was removed, then 100 μl of FLIPR buffer (20 mM HEPES, 120 mM NaCl, 2 mM KCl, 2 mM CaCl2, 1 mM MgCl2, 5 mM Glucose) and 100 μl of Membrane Potential Assay Dye (Molecular Devices) dissolved in FLIPR buffer were added to each well. The cells were incubated at room temperature for 15 to 30 min.
The effect of test compounds on KATP channels were evaluated on a fluorometric imaging plate reader (FLIPR, Molecular Devices) at room temperature. After a baseline period, 50 μl of 5× stock solution of test compound prepared in FLIPR buffer was added and fluorescence change was monitored for 3 minutes. After this reading, glyburide, a KATP channel blocker, was added to a final concentration of 5 μM to check the specificity of the test compound as a KATP channel opener. Hyperpolarization resulting from KATP channel opening was observed as a decrease in fluorescence intensity.
Representative compounds of the present invention were tested according to the procedure described above, with results as listed in Table 7 below.

T1 sequence (Q14654 whole entry): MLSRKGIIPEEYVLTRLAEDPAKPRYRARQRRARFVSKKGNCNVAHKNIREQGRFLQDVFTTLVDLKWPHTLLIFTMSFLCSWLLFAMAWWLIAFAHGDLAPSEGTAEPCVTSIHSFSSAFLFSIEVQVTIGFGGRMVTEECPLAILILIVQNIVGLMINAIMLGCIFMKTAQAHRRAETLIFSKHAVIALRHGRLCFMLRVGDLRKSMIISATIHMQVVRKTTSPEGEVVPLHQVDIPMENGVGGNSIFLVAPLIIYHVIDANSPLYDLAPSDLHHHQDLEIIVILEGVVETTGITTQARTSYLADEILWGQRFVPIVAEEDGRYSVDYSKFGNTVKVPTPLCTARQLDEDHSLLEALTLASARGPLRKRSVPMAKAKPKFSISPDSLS
T1 sequence (O60706 1-1549 isoform O60706-2): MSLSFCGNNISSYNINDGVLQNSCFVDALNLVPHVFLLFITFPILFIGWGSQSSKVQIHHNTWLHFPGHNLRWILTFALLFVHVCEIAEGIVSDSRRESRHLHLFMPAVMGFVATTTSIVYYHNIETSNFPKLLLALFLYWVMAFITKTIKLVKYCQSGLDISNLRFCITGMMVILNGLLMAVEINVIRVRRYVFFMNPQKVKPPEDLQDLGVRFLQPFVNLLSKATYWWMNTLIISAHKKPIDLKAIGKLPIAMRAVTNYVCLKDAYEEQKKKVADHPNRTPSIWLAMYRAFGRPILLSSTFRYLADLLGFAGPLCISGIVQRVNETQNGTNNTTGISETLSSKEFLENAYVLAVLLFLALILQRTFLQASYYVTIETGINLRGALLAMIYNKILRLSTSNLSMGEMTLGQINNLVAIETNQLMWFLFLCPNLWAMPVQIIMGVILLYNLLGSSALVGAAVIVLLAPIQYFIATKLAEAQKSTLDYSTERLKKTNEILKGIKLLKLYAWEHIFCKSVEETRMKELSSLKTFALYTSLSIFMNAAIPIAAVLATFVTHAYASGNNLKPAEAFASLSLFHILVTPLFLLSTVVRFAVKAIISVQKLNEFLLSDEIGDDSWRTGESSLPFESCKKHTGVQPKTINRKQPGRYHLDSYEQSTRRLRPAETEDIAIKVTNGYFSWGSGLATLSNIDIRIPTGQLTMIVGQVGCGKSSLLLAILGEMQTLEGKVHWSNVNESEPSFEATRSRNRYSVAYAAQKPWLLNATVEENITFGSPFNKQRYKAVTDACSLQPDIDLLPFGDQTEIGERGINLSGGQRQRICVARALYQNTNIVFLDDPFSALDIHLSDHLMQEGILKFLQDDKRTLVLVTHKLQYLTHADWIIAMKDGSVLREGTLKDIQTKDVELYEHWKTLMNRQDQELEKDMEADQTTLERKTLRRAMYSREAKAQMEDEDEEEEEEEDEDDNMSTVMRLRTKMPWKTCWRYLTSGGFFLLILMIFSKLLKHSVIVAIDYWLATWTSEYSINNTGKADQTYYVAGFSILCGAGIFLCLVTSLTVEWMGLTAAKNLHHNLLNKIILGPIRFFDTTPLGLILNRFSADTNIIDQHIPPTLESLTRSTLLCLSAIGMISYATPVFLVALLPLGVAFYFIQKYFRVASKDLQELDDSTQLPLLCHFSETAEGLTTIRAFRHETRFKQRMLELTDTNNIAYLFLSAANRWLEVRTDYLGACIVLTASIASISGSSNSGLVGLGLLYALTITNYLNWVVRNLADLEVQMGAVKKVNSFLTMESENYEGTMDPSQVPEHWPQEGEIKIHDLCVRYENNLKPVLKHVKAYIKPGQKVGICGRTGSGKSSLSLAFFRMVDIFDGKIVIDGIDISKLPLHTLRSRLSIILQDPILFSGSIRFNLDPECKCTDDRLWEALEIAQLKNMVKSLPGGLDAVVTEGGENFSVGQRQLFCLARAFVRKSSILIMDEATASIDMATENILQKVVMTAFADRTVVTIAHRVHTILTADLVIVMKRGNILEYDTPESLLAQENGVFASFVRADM

In the case of `N#Cc1cccc(-c2ccncc2C(O)c2ccccc2)c1` (stereo not drawn) [Compound 19, 3-[3-(Hydroxy-phenyl-methyl)-pyridin-4-yl]-benzonitrile], it took 9.63 µM to reach a half-maximal effect (EC50). This counts as single-digit micromolar. As for `CCOC(=O)c1cnc2cc(C(F)(F)F)ccc2c1-c1cccc(C(F)(F)F)c1` [Compound 10, 7-Trifluoromethyl-4-(3-trifluoromethyl-phenyl)-quinoline-3-carboxylic acid ethyl ester], the “% Stimulation” value turned out to be 22% and the half-maximal effective concentration (EC50) is greater than 30 µM. In turn, `COc1ccc(OC)c(C(O)c2cnccc2C(=O)c2ccccc2)c1` (stereo not drawn) [Compound 46, {3-[(2,5-Dimethoxy-phenyl)-hydroxy-methyl]-pyridin-4-yl}-phenyl-methanone] returned an EC50 of 12.1 µM. The same measure, in the same setting: the value for `N#Cc1cccc(-c2ccncc2C(O)c2cc(Cl)cc(Cl)c2)c1` (stereo not drawn) [Compound 25, 3-{3-[(3,5-Dichloro-phenyl)-hydroxy-methyl]-pyridin-4-yl}benzonitrile] was 9.82 µM. In the case of `COc1ccc(C(O)c2cnccc2-c2cccc(C#N)c2)cc1` (stereo not drawn) [Compound 30, 3-{3-[Hydroxy-(4-methoxy-phenyl)-methyl]-pyridin-4-yl}-benzonitrile], the “% Stimulation” value is on record as 7% and the EC50 was greater than 30 µM. In the case of `O=C(c1ccccc1)c1ccncc1C(O)c1cccc(F)c1` (stereo not drawn) [Compound 47, {3-[(3-Fluoro-phenyl)-hydroxy-methyl]-pyridin-4-yl}-phenyl-methanone], the EC50 was 5.09 µM. That is a single-digit micromolar value. Turning to `COc1ccc(CO)cc1-c1ccncc1CO` [Compound 58], the “% Stimulation” value amounted to 14% and the EC50 was greater than 30 µM. `COc1ccc(C(O)c2cnccc2-c2cccc(C#N)c2)cc1F` (stereo not drawn) [Compound 37, 3-{3-[(3-Fluoro-4-methoxy-phenyl)-hydroxy-methyl]-pyridin-4-yl}-benzonitrile] showed an EC50 of 9.59 µM. With `Cc1cc(C)c(C(O)c2cnccc2-c2cccc(C#N)c2)c(C)c1` (stereo not drawn) [Compound 35, 3-{3-[Hydroxy-(2,4,6-trimethyl-phenyl)-methyl]-pyridin-4-yl}-benzonitrile], the “% Stimulation” value is on record as 37% and the concentration giving a half-maximal response (EC50) was greater than 30 µM. For `CCOC(=O)c1ccc(-c2c(C(=O)OCC)cnc3cc(C(F)(F)F)ccc23)cc1` [Compound 4, 4-(4-Ethoxycarbonyl-phenyl)-7-trifluoromethyl-quinoline-3-carboxylic acid ethyl ester], the “% Stimulation” value came out at 38% and the concentration giving a half-maximal response (EC50) is greater than 30 µM. On the same counts, the results for `CCOC(=O)c1cnc2cc(C(F)(F)F)ccc2c1-c1ccc(C)c(C)c1` [Compound 13, 4-(3,4-Dimethyl-phenyl)-7-trifluoromethyl-quinoline-3-carboxylic acid ethyl ester] are 0% and greater than 30 µM. As to `COc1ccccc1C(O)c1cnccc1-c1cccc(C#N)c1` (stereo not drawn) [Compound 28, 3-{3-[Hydroxy-(2-methoxy-phenyl)-methyl]-pyridin-4-yl}-benzonitrile], a half-maximal response (EC50) required 10.2 µM. The same measure, in the same setting: under `CCOC(=O)c1cnc2cc(C(F)(F)F)ccc2c1OS(=O)(=O)C(F)(F)F` [Compound 15, 4-Trifluoromethanesulfonyloxy-7-trifluoromethyl-quinoline-3-carboxylic acid ethyl ester] stands 6.27 µM.

As for `N#Cc1cccc(-c2ccncc2CO)c1` [Compound 50, 3-(3-Hydroxymethyl-pyridin-4-yl)-benzonitrile], the “% Stimulation” value came out at 19% and the EC50 was greater than 30 µM. Consider `CC(C)(C)c1ccc(C(O)c2cnccc2-c2cccc(C#N)c2)cc1` (stereo not drawn) [Compound 27, 3-{3-[(4-tert-Butyl-phenyl)-hydroxy-methyl]-pyridin-4-yl}-benzonitrile], for which the EC50 was determined as 10.7 µM.

Molecule `CC(O)c1cnccc1C(=O)c1ccccc1` (stereo not drawn) [Compound 59, [3-(1-Hydroxy-ethyl)-pyridin-4-yl]-phenyl-methanone] had an EC50 of 26.8 µM. The same measure, in the same setting: the value for `CSc1ccc(C(O)c2cnccc2-c2cccc(C#N)c2)cc1` (stereo not drawn) [Compound 34, 3-{3-[Hydroxy-(4-methylsulfanyl-phenyl)-methyl]-pyridin-4-yl}-benzonitrile] was 20.8 µM.
